The values below come from PubChem BioAssay (NCI).

Test systems include MALME-3M melanoma; SN12C renal; HCT-116 colon; CAKI-1 renal; HOP-62 NSCLC; SK-OV-3 ovarian; SW-620 colon; RPMI-8226 leukemia; OVCAR-8 ovarian; DU-145 prostate; MDA-MB-231 breast.
What all share (assay): NCI-60 cell line screen, 48 h

Values joined by “and” are separate entries in the source; they are usually repeats but may differ in a detail not shown here. Equal values may be shown once.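 These data come from cells grown in 96-well plates and exposed to compound for 48 hours at five concentrations. At the GI50, growth is halved. At the TGI there is no net growth.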

Consider `Cc1ccc([N+](=O)[O-])c2c(NCC(O)CO)ccnc12` (centres undefined), for which the TGI in the assay with MALME-3M melanoma is 44.6 µM; in the assay on SN12C renal, above 100 µM; with HCT-116 colon, above 100 µM; with CAKI-1 renal, above 100 µM; in the assay on HOP-62 NSCLC, above 100 µM; in the assay on SK-OV-3 ovarian, above 100 µM. Further, the TGI in the assay on SW-620 colon, in the assay on RPMI-8226 leukemia, in the assay with OVCAR-8 ovarian and in the assay with DU-145 prostate was above 100 µM throughout.
Regarding `Cn1c(O)c(C=Nc2ccccc2Cl)c(=O)n(C)c1=O`, the TGI in the assay with MALME-3M melanoma was above 100 µM; in the assay on SN12C renal, above 100 µM; in the assay with HCT-116 colon it was 35.5 µM; in the assay on CAKI-1 renal, above 100 µM; in the assay on HOP-62 NSCLC it was 52.4 µM; with SK-OV-3 ovarian, above 100 µM. Moreover, the TGI in the assay on MDA-MB-231 breast was above 100 µM; in the assay on SW-620 colon it was above 100 µM; in the assay with RPMI-8226 leukemia, 51.7 µM; in the assay on OVCAR-8 ovarian, above 100 µM.
In the case of `C=CCC(C(=O)Nc1cccc2[nH]cnc12)C(=O)OCC` (centres undefined), the TGI in the assay on SN12C renal, with HCT-116 colon, in the assay on HOP-62 NSCLC, in the assay with SK-OV-3 ovarian, in the assay with MDA-MB-231 breast and in the assay on SW-620 colon was above 100 µM each time. Moreover, the TGI with RPMI-8226 leukemia, in the assay on OVCAR-8 ovarian and in the assay with DU-145 prostate was above 100 µM each time.
Take `CN(Cc1cc(Cl)c(Cl)cc1NC(=O)CN)[C@H]1CCCC[C@@H]1N1CCCC1`: the TGI was 33.6 µM with MALME-3M melanoma; above 100 µM in the assay on SN12C renal; 45.2 µM with HCT-116 colon; above 100 µM in the assay on CAKI-1 renal; above 100 µM with HOP-62 NSCLC; above 100 µM with SK-OV-3 ovarian. Moreover, the TGI in the assay on MDA-MB-231 breast, with SW-620 colon and with OVCAR-8 ovarian was above 100 µM throughout.
For `COc1cc(Br)c(CC2C3=C(CCN2C(=O)C2CCC2)CC(=O)CC3)cc1O` (centres undefined), the TGI with MALME-3M melanoma was 92.7 µM; in the assay on SN12C renal, above 100 µM; in the assay on HCT-116 colon it was above 100 µM; in the assay on HOP-62 NSCLC, above 100 µM; in the assay on SK-OV-3 ovarian, above 100 µM; in the assay with MDA-MB-231 breast, above 100 µM. For the same compound, the TGI with SW-620 colon, in the assay on RPMI-8226 leukemia, with OVCAR-8 ovarian and in the assay on DU-145 prostate was above 100 µM throughout.
Take `O=C(CSc1nc2ccccc2c(=O)n1-c1ccccc1)N=Nc1c(O)[nH]c2ccc(F)cc12`: the TGI is 4.46 µM in the assay on HCT-116 colon; 3.46 µM in the assay with CAKI-1 renal; 6.77 µM in the assay on HOP-62 NSCLC; 3.75 µM with SK-OV-3 ovarian; 4.79 µM with MDA-MB-231 breast; 15.2 µM with SW-620 colon. Also, the TGI in the assay with RPMI-8226 leukemia was 4.65 µM; in the assay on DU-145 prostate, 4.17 µM.
In the case of `CN1C/C(=C\C=C\c2ccccc2)C(=O)/C(=C/C=C/c2ccccc2)C1`, the TGI with MALME-3M melanoma, in the assay with SN12C renal, in the assay with HCT-116 colon, with CAKI-1 renal, in the assay with HOP-62 NSCLC and in the assay on SK-OV-3 ovarian was above 100 µM throughout. Moreover, the TGI in the assay with SW-620 colon, in the assay with RPMI-8226 leukemia and in the assay with OVCAR-8 ovarian was above 100 µM each time.
Take `O=c1c2ccccc2nc(N/N=C/c2ccccc2O)n1-c1ccccc1`: the TGI in the assay with MALME-3M melanoma is above 100 µM; with SN12C renal, above 100 µM; with HCT-116 colon, 8.8 µM; in the assay on CAKI-1 renal, above 100 µM; in the assay on HOP-62 NSCLC it was above 100 µM; with SK-OV-3 ovarian, above 100 µM. Further, the TGI is above 100 µM in the assay on MDA-MB-231 breast, above 100 µM in the assay on SW-620 colon, 5.43 µM in the assay with OVCAR-8 ovarian and above 100 µM in the assay on DU-145 prostate.
`O=[N+]([O-])C(Cl)=C/C(=C(\Cl)SCc1ccccc1)[N+](=O)[O-]`: the TGI with MALME-3M melanoma was 57.8 µM; in the assay with SN12C renal it was 45.3 µM; with HCT-116 colon, 44.1 µM; with CAKI-1 renal it was 34.2 µM; with HOP-62 NSCLC, 36.2 µM; with SK-OV-3 ovarian it was above 100 µM. The TGI in the assay on MDA-MB-231 breast was 59.3 µM; in the assay on SW-620 colon, 59.3 µM; in the assay on OVCAR-8 ovarian, 59.9 µM; in the assay on DU-145 prostate, above 100 µM.
For `C=C(C(=O)O[C@H]1C(=O)C2=C(C)CCC3C(=C)C(=O)O[C@@H]3C2[C@]1(C)O)C1CC[C@]2(C)CCCC(=C)[C@H]2C1` (some centres undefined), the GI50 in the assay on MALME-3M melanoma is 15.5 µM; in the assay on SN12C renal it was 7.25 µM; with HCT-116 colon, 2.09 µM; in the assay with CAKI-1 renal, 3.67 µM; in the assay with HOP-62 NSCLC, 3.09 µM; with OVCAR-8 ovarian, 5.67 µM. Also, the GI50 in the assay with DU-145 prostate is 5.37 µM. In addition, the TGI in the assay on MALME-3M melanoma is 16.3 µM and 31.1 µM; in the assay with SN12C renal it was 15.5 µM and 8.62 µM; in the assay with HCT-116 colon, 9.96 µM and 8.4 µM; in the assay with CAKI-1 renal it was 10.2 µM and 25.3 µM; with HOP-62 NSCLC it was 10.2 µM and 20.5 µM; in the assay on SK-OV-3 ovarian, 30.5 µM. For the same compound, the TGI in the assay on MDA-MB-231 breast was 13.8 µM; with SW-620 colon, 21.2 µM; in the assay with OVCAR-8 ovarian it was 12.3 µM and 13.1 µM; in the assay with DU-145 prostate, 11.3 µM and 10.3 µM.
Turning to `NC(N)=NCCCC(NC(=O)OCCCCn1ccc(N)nc1=O)C(=O)O` (centres undefined), the TGI in the assay on SN12C renal, with HCT-116 colon, with CAKI-1 renal, with HOP-62 NSCLC, with SK-OV-3 ovarian and in the assay with MDA-MB-231 breast was above 100 µM throughout. For the same compound, the TGI in the assay with SW-620 colon, with RPMI-8226 leukemia and in the assay on DU-145 prostate was above 100 µM throughout.
`CC(=O)N/C(=C\c1ccc(Cc2nc3c([nH]2)C(=O)c2ccccc2C3=O)cc1)c1nc2c([nH]1)C(=O)c1ccccc1C2=O`: the TGI in the assay on MALME-3M melanoma, in the assay on SN12C renal, with HCT-116 colon, with CAKI-1 renal, in the assay with HOP-62 NSCLC and with SK-OV-3 ovarian was above 100 µM throughout. For the same compound, the TGI in the assay on SW-620 colon, in the assay with RPMI-8226 leukemia and in the assay on OVCAR-8 ovarian was above 100 µM each time.
For `CCOC(=O)C(NC(=O)OC(C)(C)C)C(=O)OCC`, the TGI in the assay on SN12C renal, in the assay on HCT-116 colon, in the assay with CAKI-1 renal, in the assay on HOP-62 NSCLC, in the assay with SK-OV-3 ovarian and in the assay with SW-620 colon was above 100 µM in each case. For the same compound, the TGI with RPMI-8226 leukemia, with OVCAR-8 ovarian and with DU-145 prostate was above 100 µM in each case.
